Assay results: patent US7678831B2, “Butanoic acid derivatives, processes for the preparation thereof, pharmaceutical compositions comprising them, and therapeutic applications thereof” (Merck Patent GmbH, priority 2004, dated 2010)
Marks after values point to notes of the source that are not given here.

Key:
Gal4 alone = test: Control reporter test without the PPAR ligand binding domain (vector expressing Gal4 alone); format: cell-based; conditions: CV-1 cells
Procedure: CV-1 cells (monkey kidney cells) are co-transfected with an expression vector for the chimeric proteins PPARα-Gal4 or PPARγ-Gal4 and with a “reporter” plasmid that allows the expression of the luciferase gene placed under the control of a promoter comprising Gal4 response elements. The cells are plated into 96-well microplates and co-transfected using a commercial reagent with the reporter plasmid (pG5-tk-pGL3) and the expression vector for the chimeric protein (PPARα-Gal4 or PPARγ-Gal4). After incubating for 4 hours, whole culture medium (comprising 10% foetal calf serum) is added to the wells. After 24 hours, the medium is removed and replaced with whole medium comprising the test products (50 μM final). The products are left in contact with the cells for 18 hours. The cells are then lysed and the luciferase activity is measured using a luminometer. A PPAR activation factor can then be calculated by means of activation of the expression of the reporter gene induced by the product (relative to the control cells that have not received any product). […] In the absence of the binding domain for the PPAR α or γ ligand (vector expressing Gal4 alone), the luciferase activity measured in the presence of this product is zero.

[1] = biological target: T1, chimeric protein PPARγ-Gal4 (Homo sapiens, UniProt P37231); test: PPAR activation, Gal4 chimera luciferase reporter gene in co-transfected CV-1 cells; format: cell-based; conditions: 50 μM, 18 hours contact, CV-1 cells (monkey kidney cells)
T1 construct: Gal4 (fusion partner); expressed in transfected cells; host or cells: CV-1 cells (monkey kidney cells)
T1 sequence (P37231 238-503 limits assumed): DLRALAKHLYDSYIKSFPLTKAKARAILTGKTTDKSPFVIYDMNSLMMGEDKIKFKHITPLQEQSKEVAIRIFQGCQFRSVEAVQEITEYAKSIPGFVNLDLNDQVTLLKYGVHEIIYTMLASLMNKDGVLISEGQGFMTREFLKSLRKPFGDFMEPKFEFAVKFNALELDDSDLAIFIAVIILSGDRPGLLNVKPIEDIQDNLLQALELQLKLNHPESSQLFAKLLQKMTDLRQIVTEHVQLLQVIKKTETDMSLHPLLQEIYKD
Procedure: (§1) The measurement of the PPAR activation was performed according to a technique described by Lehmann et al. (J. Biol. Chem., 270, (1995), 12953-12956).
(§2) CV-1 cells (monkey kidney cells) are co-transfected with an expression vector for the chimeric proteins PPARα-Gal4 or PPARγ-Gal4 and with a “reporter” plasmid that allows the expression of the luciferase gene placed under the control of a promoter comprising Gal4 response elements.
(§3) The cells are plated into 96-well microplates and co-transfected using a commercial reagent with the reporter plasmid (pG5-tk-pGL3) and the expression vector for the chimeric protein (PPARα-Gal4 or PPARγ-Gal4). After incubating for 4 hours, whole culture medium (comprising 10% foetal calf serum) is added to the wells. After 24 hours, the medium is removed and replaced with whole medium comprising the test products (50 μM final). The products are left in contact with the cells for 18 hours. The cells are then lysed and the luciferase activity is measured using a luminometer. A PPAR activation factor can then be calculated by means of activation of the expression of the reporter gene induced by the product (relative to the control cells that have not received any product).

[2] = biological target: T2, chimeric protein PPARα-Gal4 (Homo sapiens, UniProt Q07869); test: as above; format: cell-based; conditions: 50 μM, 18 hours contact, CV-1 cells (monkey kidney cells)
T2 construct: Gal4 (fusion partner); expressed in transfected cells; host or cells: CV-1 cells (monkey kidney cells)
T2 sequence (Q07869 239-466 limits assumed): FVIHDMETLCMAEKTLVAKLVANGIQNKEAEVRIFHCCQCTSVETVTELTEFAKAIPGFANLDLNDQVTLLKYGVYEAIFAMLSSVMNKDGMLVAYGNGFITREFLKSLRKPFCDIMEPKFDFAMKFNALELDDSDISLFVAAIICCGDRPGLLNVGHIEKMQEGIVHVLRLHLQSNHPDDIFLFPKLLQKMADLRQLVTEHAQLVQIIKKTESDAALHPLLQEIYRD
Procedure: as §1, §2, §3

db/db mice = test: Antidiabetic and hypolipidaemiant activity, oral, in db/db mice; format: in vivo; conditions: 20 mg/kg/day orally for 15 days
Procedure: The antidiabetic and hypolipidaemiant activity of the compounds according to the invention was determined orally on db/db mice.
15-week-old db/db mice are treated orally for 15 days with the compound of Example 18 (20 mg/kg/day). Each group studied comprises seven animals. After treatment for 15 days, retro-orbital samples are taken under mild anaesthesia and after fasting for four hours.
The following parameters were measured:
Assay of the glycaemia (glucose oxidase) and of the lipid parameters on the sera at D15 (COBAS): triglycerides, total cholesterol (CHOL), HDL cholesterol (HDL-C) and free fatty acids (FFA) (BioMérieux and Waco Chemicals assay kit).
The measurements reported represent mean values±standard error.

[3] = serum at D15, fasting four hours, mean ± standard error

| Compound | melting point [°C] | also measured |
| --- | --- | --- |
| O=C(c1ccc(Cl)cc1)c1ccc(O[C@@H](CCc2ccccc2)C(=O)O)cc1 [Example 6] | 148 |  |
| O=C(O)[C@H](CCc1ccccc1)Oc1ccc(-c2cccnc2)cc1 [Example 7] | 140 |  |
| O=C(O)[C@H](CCc1ccccc1)Oc1ccc(-c2ccsc2)cc1 [Example 8] | 176 to 177 |  |
| O=C(O)[C@H](CCc1ccccc1)Oc1ccc(-c2cccs2)cc1 [Example 9] | 151 to 153 |  |
| O=C(O)[C@H](CCc1ccccc1)Oc1ccc(-c2ccc(Cl)s2)cc1 [Example 18, (2S)-2-[4-(5-chlorothien-2-yl)phenoxy]-4-phenylbutanoic acid] |  | luciferase activity in the absence of the binding domain for the PPAR α or γ ligand (Gal4 alone): zero; PPAR activation factor (reporter gene expression relative to control cells) [1]: 41; PPAR activation factor (reporter gene expression relative to control cells) [2]: 16; CHOL, % var. (percentage of variation versus control) (db/db mice; D15): +25 ** %; FFA, % var. (percentage of variation versus control) (db/db mice; D15): −40 ** %; Glycaemia, % var. (percentage of variation versus control) (db/db mice; D15): −53 ** %; HDL-C, % var. (percentage of variation versus control) (db/db mice; D15): +10 * %; Triglycerides, % var. (percentage of variation versus control) (db/db mice; D15): −41 ** %; CHOL (total cholesterol) (db/db mice; [3]): 4.57 ± 0.51 mM; FFA (free fatty acids) (db/db mice; [3]): 0.42 ± 0.06 mM; Glycaemia (db/db mice; [3]): 12.65 ± 7.0 Mm; HDL-C (db/db mice; [3]): 3.53 ± 0.24 mM; Triglycerides (db/db mice; [3]): 0.77 ± 0.16 mM |
| Cc1nc(-c2ccc(O[C@@H](CCc3ccccc3)C(=O)O)cc2)cs1 [Example 26] | 150 to 152 |  |
| O=C(O)C(CCc1cccc(Cl)c1)Oc1ccc(-c2cc3ccccc3s2)cc1 (stereo not shown) [Example 141] | 109 to 110 |  |
| COc1ccc(CCC(Oc2ccc(-c3cc4ccccc4s3)cc2)C(=O)O)cc1 (stereo not shown) [Example 142] | 198 to 199 |  |
| O=C(O)[C@H](CCc1ccccc1)Oc1cccc(OCc2ccc3ccccc3n2)c1 [Example 143] | 124 |  |
| O=C(O)[C@H](CCc1ccccc1)Oc1ccc(-c2cc3ccccc3o2)cc1 [Example 144] | 198 |  |
| O=C(O)C(CCc1ccc(F)cc1)Oc1ccc(-c2cc3ccccc3s2)cc1 (stereo not shown) [Example 146] | 188 to 190 |  |
| O=C(O)C(CCc1ccccc1)Oc1ccc2oc3ccccc3c2c1 (stereo not shown) [Example 152] | 136 |  |
| Cc1cc(OC(CCc2ccccc2)C(=O)O)cc(=O)o1 (stereo not shown) [Example 207] | 165 |  |
| O=C(O)C(CCc1ccco1)Oc1ccc(Br)cc1 (stereo not shown) [Example 227] | 102 to 104 |  |
| O=C(O)C(CCc1ccco1)Oc1ccc(C(F)(F)F)cc1 (stereo not shown) [Example 228] | 99 to 99.5 |  |
| O=C(O)C(CCc1cccs1)Oc1ccc(C(F)(F)F)cc1 (stereo not shown) [Example 229] | 116 to 118 |  |
